This experiment concerns 922993-354-T-J3-PDC complex spheroid viability. The experiment can be described thus: Anticancer human tumor 922993-354-T-J3-PDC patient-derived endometrial carcinoma cell line growth inhibition [POLQ]. Particulars: for viability, T/C: stronger effect = lower value. The protocol:
Multicellular complex tumor spheroid response to Polymerase (POL) inhibitors (novobiocin, ART-558, RP6685) in combination with a variety of drugs and investigational agents in selected tumor cell lines
The POL inhibitors (novobiocin, ART-558, and RP6685) were evaluated both individually and in combination with standard of care and investigational anticancer small molecules within a complex spheroid model of solid tumors. . Complex spheroids include a stromal component modeled by human endothelial cells (HUVEC) and fibroblasts modeled by human mesenchymal stem cells (MSCs). The concentration ranges selected for each drug and investigational agent were based upon clinically achievable concentrations if the clinical Cmax of the agent was known.
Compounds. The drugs and investigational agents: novobiocin (NSC847541), ART-558 (NSC835418), RP-6685 (NSC848927), peposertib (NSC802822), ceralasertib (NSC780249), elimusertib (NSC800525), camonsertib (NSC841442), AZD-1390 (NSC803789), olaparib (NSC753686), talazoparib (NSC767125), rucaparib (NSC756644), sotorasib (NSC818433), MRTX-1133 (NSC836407), SN-38 (NSC673596), topotecan (NSC609699), epotoside (NSC141540), doxorubicin (NSC123127), gemcitabine (NSC613327), 5-fluorouracil (NSC19893), paclitaxel (NSC125973), vemurafenib (NSC761431), MSA-2 (NSC828583), SN-011 (NSC837082), adavosertib (NSC754352), prexasertib (NSC758257), carboplatin (NSC241240) and oxaliplatin (NSC266046), were obtained from the National Cancer Institute (NCI) Developmental Therapeutics Program Chemical Repository (21). The FDA-approved anticancer drug set is available from the Developmental Therapeutics Program at https://dtp.cancer.gov/organization/dscb/obtaining/. […] The stock solutions were prepared in dimethyl sulfoxide (DMSO, Sigma-Aldrich, St. Louis, MO, cat. D2650), except for the platinum compounds which were prepared in saline (Quality Biological, Gaithersburg, MD, cat. 114-055-101), at 800-fold the tested concentration and stored at -70 degrees C prior to their use. All drugs and investigational agents were tested over a range starting from a high concentration at or near the clinical Cmax and decreasing in half-log increments. If the clinical Cmax for an agent had not been determined, the highest concentration tested was 10 microM, except for SN-38, which was tested at a high concentration of 1 microM.
Cell Culture. All cells were maintained in an incubator at 37 degrees C and 5% CO2 with 95% humidity. The PDC lines were cultured according to standard operating procedures established by the NCI PDMR (https://pdmr.cancer.gov). Table 3 of the manuscript, lists the cell lines along with the number of the three cell types plated to form the mct-spheroids and media for tumor cell growth. After thawing, all PDC lines, except 997537-175-T-J1-PDC and 415267-285-R-J2-PDC, were cultured in Matrigel-coated flasks prepared with a working solution of 1X Ham's F-12 nutrient mix, without supplementation (Thermo Fisher Scientific, cat. 11765054), 100 U/mL penicillin-streptomycin (Thermo Fisher Scientific, cat. 15140122), and 2.5% Matrigel (Corning Inc., Corning, NY, cat. 354248) for the first three passages. The two PDC lines 997537-175-T-J1-PDC and 415267-285-R-J2-PDC were cultured on uncoated flasks. The 857933-349-R-J2-PDC line was cultured in 6C/Colon 1B media containing advanced DMEM/F-12 (Thermo Fisher Scientific, cat. 12634028), 10 mM HEPES (Thermo Fisher Scientific, cat. 15630080), 1X GlutaMAX supplement (Thermo Fisher Scientific, cat. 35050061), 0.1 mg/mL primocin (InvivoGen, San Diego, CA, cat. ant-pm-2), 10% defined fetal bovine serum, heat inactivated (HyClone Laboratories Inc., Logan, UT, cat. SH30070.03HI), 50% L-WRN conditioned media (ATCC, cat. CRL-3276), 1.25 mM N-Acetyl-L-cysteine (Sigma-Aldrich, cat. A9165), 10 mM nicotinamide (Sigma-Aldrich, cat. N0636), 1X B-27 supplement (Thermo Fisher Scientific, cat. 17504044), 1X N-2 supplement (Thermo Fisher Scientific, cat. […]

The mark [1] stands for this setting: compound alone, run of 11/06/2023.

Each structure is given as a SMILES string. pIC50: −log10 of the molar value. Several values for one entry are separate records, joined by “and”; a condition that tells them apart may be missing. Equal entries are not always repeated.
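Also: spheroids exposed to the agents for one week.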
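For viability, T/C in this document: 100% = DMSO vehicle control wells.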

In general, viability, T/C refers to the ratio of treated to control. What is called pIC50 is −log10 of the IC50, conventionally taken in molar units. Take `COc1ccc([C@@H](O)c2cc(-c3ncnc4cc(N5CCOCC5)ccc34)c(F)cc2Cl)nn1`: the viability, T/C was 95.5% and 103% and 107% (compound 0.0316 µM); 84.6% and 101% and 89.6% (compound 0.1 µM); 99.2% and 98.3% and 96.1% (compound 0.316 µM); 92.9% and 97.3% and 99.2% (compound 1 µM); 78.1% and 90.2% and 83.4% (compound 3.16 µM); 57% and 75% and 62.1% (compound 10 µM). Moreover, where the note is “curve of compound”, the pIC50 is less than 5.00.

Regarding `COc1cccc(OCCCN)c1-c1cc(Nc2cnc(C#N)cn2)n[nH]1`, the viability, T/C (compound 0.00316 µM) is 95.3% and 103% (2×); the viability, T/C (compound 0.01 µM) was 89.9% and 104% and 99.4%; the viability, T/C (compound 0.0316 µM) was 72% and 101% and 96.2%; the viability, T/C (compound 0.1 µM) is 80.4% and 102% (2×); the viability, T/C (compound 0.316 µM) was 16.6% and 92.8% and 90.4%; the viability, T/C (compound 1 µM) was 12.3% and 21.8% and 21.6%. Also, the pIC50 (curve of compound) is 6.76 and 6.20 and 6.21.

For `COc1cccc2c1C(=O)c1c(O)c3c(c(O)c1C2=O)CC(O)(C(=O)CO)CC3OC1CC(N)C(O)C(C)O1` (centres undefined), the viability, T/C runs as follows: (compound 0.0316 µM) 95.6% and 102% and 94.8%; (compound 0.1 µM) 84.5% and 106% and 91.1%; (compound 0.316 µM) 79.2% and 99.9% and 86.9%; (compound 1 µM) 49.4% and 91.8% and 61.5%; (compound 3.16 µM) 30% and 74.5% and 31.3%; (compound 10 µM) 12.6% and 30.7% and 10.1%. The pIC50 (curve of compound) is 5.95 and 5.22 and 5.80.

Take `Cc1cccc(N(C)C(=O)C2C(O)CCN2c2nc(C)cc(C(F)(F)F)c2C#N)c1` (centres undefined): the viability, T/C was 102% [middle of 13 runs] (compound 0.0316 µM); 101% [middle of 13 runs] (compound 0.1 µM); 103% [middle of 13 runs] (compound 0.316 µM); 103% [middle of 13 runs] (compound 1 µM); 103% [middle of 13 runs] (compound 3.16 µM); 105% [middle of 13 runs] (compound 10 µM). Further, the pIC50 reads like this: (compound alone, run of 10/31/2023) less than 5.00; under setting [1], less than 5.00.

`Cn1ncnc1[C@H]1c2n[nH]c(=O)c3cc(F)cc(c23)N[C@@H]1c1ccc(F)cc1`: the viability, T/C is 93.8% and 97.3% and 106% (compound 0.000316 µM); 88.3% and 96.2% and 93.8% (compound 0.001 µM); 94% and 101% and 93.7% (compound 0.00316 µM); 103% and 100% and 109% (compound 0.01 µM); 94.3% and 98.1% and 96.2% (compound 0.0316 µM); 79.3% and 83.4% and 61% (compound 0.1 µM). Further, the pIC50 (curve of compound) was less than 7.00.

Take `Nc1ccc(C#CCN(C(=O)Cc2ncc(C(F)(F)F)cc2C(F)(F)F)c2ccc(F)cc2)nn1`: the viability, T/C runs as follows: (compound 0.0316 µM) 103% [middle of 13 runs]; (compound 0.1 µM) 102% [middle of 12 runs]; (compound 0.316 µM) 102% [middle of 13 runs]; (compound 1 µM) 101% [middle of 13 runs]; (compound 3.16 µM) 101% [middle of 13 runs]; (compound 10 µM) 98% [middle of 13 runs]. Moreover, under setting [1], the pIC50 was less than 5.00.

As for `Nc1ccn(C2OC(CO)C(O)C2(F)F)c(=O)n1` (centres undefined), the viability, T/C reads like this: (compound 0.0316 µM) 13.5% and 24% and 10.2%; (compound 0.1 µM) 9.54% and 19.8% and 10.8%; (compound 0.316 µM) 11.1% and 19.8% and 8.64%; (compound 1 µM) 12.2% and 17.1% and 9.88%; (compound 3.16 µM) 9.68% and 23.8% and 9.1%; (compound 10 µM) 8.4% and 22.9% and 7.7%. Moreover, the pIC50 (curve of compound) is more than 7.50.

With `O=C(c1cc(Cc2n[nH]c(=O)c3ccccc23)ccc1F)N1CCN(C(=O)C2CC2)CC1`, the viability, T/C is 107% and 111% and 103% (compound 0.0316 µM); 100% and 97.4% and 101% (compound 0.1 µM); 95.3% and 93.3% and 102% (compound 0.316 µM); 106% and 94% and 101% (compound 1 µM); 92% and 94% and 104% (compound 3.16 µM); 96.9% and 99.4% and 94.8% (compound 10 µM). Further, the pIC50 (curve of compound) is less than 5.00.

On to `O=c1[nH]cc(F)c(=O)[nH]1`, for which the viability, T/C reads like this: (compound 0.0316 µM) 92.3% and 104% and 112%; (compound 0.1 µM) 105% and 101% and 99.1%; (compound 0.316 µM) 95% and 101% and 95.6%; (compound 1 µM) 101% and 105% and 99.3%; (compound 3.16 µM) 30.5% and 79.5% and 27.9%; (compound 10 µM) 14.8% and 24.6% and 17.6%. Further, the pIC50 (curve of compound) is 5.64 and 5.23 and 5.66.
